{"source": "patent US20180243273A1", "about": "“Composition for Intravesical Administration for Treating Bladder Pain” (priority 2017, published 2018)", "test": "Storage of compositions with/without nitrogen-gassing and ascorbic acid, assay and impurities", "type": "physicochemical", "conditions": "for Assay / Impurities: phosphate buffer", "procedure": "A possible beneficial effect of nitrogen-gassing during manufacturing and storage was assessed. Selected compositions were manufactured by dissolution of API via stirring for 24 h and stored after treatment with/without nitrogen at 25° C. or 6° C. for up to 28 days.\nThe manufactured batches consisted of phosphate buffer and vitamin E TPGS and were compared to compositions containing ascorbic acid 1%, additionally. API was used at 0.01 wt.-%, 0.02 wt.-% or 0.04 w.-%. The compositions were saturated with API, where 10 mg, 20 mg or 40 mg were dissolved in 100 g buffer containing 0.5 wt.-%, wt.-1% or 2 wt.-% vitamin E TPGS, respectively. The compositions were transferred into polystyrene bottles and stored at 25° C. or 6° C. A part of the compositions was treated with nitrogen during manufacturing and gassed with nitrogen prior to sealing (see FIG. 18). The compositions were tested for assay and purity of API after manufacturing, as well as after 7, 14 and 28 days.", "key": {"[1]": {"conditions": "vitamin E TPGS 1%, no Asc., N2 +, API 0.02%, 25° C., t = 28 d"}, "[2]": {"conditions": "vitamin E TPGS 1%, no Asc., N2 +, API 0.02%, t = 0"}, "[3]": {"conditions": "vitamin E TPGS 1%, no Asc., N2 −, API 0.02%, 6° C., t = 7 d"}, "[4]": {"conditions": "vitamin E TPGS 1%, no Asc., N2 −, API 0.02%, 6° C., t = 14 d"}, "[5]": {"conditions": "vitamin E TPGS 1%, no Asc., N2 −, API 0.02%, 6° C., t = 28 d"}, "[6]": {"conditions": "vitamin E TPGS 1%, no Asc., N2 −, API 0.02%, 25° C., t = 7 d"}, "[7]": {"conditions": "vitamin E TPGS 1%, no Asc., N2 −, API 0.02%, 25° C., t = 14 d"}, "[8]": {"conditions": "vitamin E TPGS 1%, no Asc., N2 −, API 0.02%, 25° C., t = 28 d"}, "[9]": {"conditions": "vitamin E TPGS 1%, no Asc., N2 −, API 0.02%, t = 0"}, "[10]": {"conditions": "vitamin E TPGS 2%, Asc. 1%, N2 +, API 0.04%, 6° C., t = 7 d"}, "[11]": {"conditions": "vitamin E TPGS 2%, Asc. 1%, N2 +, API 0.04%, 6° C., t = 14 d"}, "[12]": {"conditions": "vitamin E TPGS 2%, Asc. 1%, N2 +, API 0.04%, 6° C., t = 28 d"}, "[13]": {"conditions": "vitamin E TPGS 2%, Asc. 1%, N2 +, API 0.04%, 25° C., t = 7 d"}, "[14]": {"conditions": "vitamin E TPGS 2%, Asc. 1%, N2 +, API 0.04%, 25° C., t = 14 d"}, "[15]": {"conditions": "vitamin E TPGS 2%, Asc. 1%, N2 +, API 0.04%, 25° C., t = 28 d"}, "[16]": {"conditions": "vitamin E TPGS 2%, Asc. 1%, N2 +, API 0.04%, t = 0"}, "[17]": {"conditions": "vitamin E TPGS 2%, Asc. 1%, N2 −, API 0.04%, 6° C., t = 7 d"}, "[18]": {"conditions": "vitamin E TPGS 2%, Asc. 1%, N2 −, API 0.04%, 6° C., t = 14 d"}, "[19]": {"conditions": "vitamin E TPGS 2%, Asc. 1%, N2 −, API 0.04%, 6° C., t = 28 d"}, "[20]": {"conditions": "vitamin E TPGS 2%, Asc. 1%, N2 −, API 0.04%, 25° C., t = 7 d"}, "[21]": {"conditions": "vitamin E TPGS 2%, Asc. 1%, N2 −, API 0.04%, 25° C., t = 14 d"}, "[22]": {"conditions": "vitamin E TPGS 2%, Asc. 1%, N2 −, API 0.04%, 25° C., t = 28 d"}, "[23]": {"conditions": "vitamin E TPGS 2%, Asc. 1%, N2 −, API 0.04%, t = 0"}, "[24]": {"conditions": "vitamin E TPGS 2%, no Asc., N2 +, API 0.04%, 6° C., t = 7 d"}, "[25]": {"conditions": "vitamin E TPGS 2%, no Asc., N2 +, API 0.04%, 6° C., t = 14 d"}, "[26]": {"conditions": "vitamin E TPGS 2%, no Asc., N2 +, API 0.04%, 6° C., t = 28 d"}, "[27]": {"conditions": "vitamin E TPGS 2%, no Asc., N2 +, API 0.04%, 25° C., t = 7 d"}, "[28]": {"conditions": "vitamin E TPGS 2%, no Asc., N2 +, API 0.04%, 25° C., t = 14 d"}, "[29]": {"conditions": "vitamin E TPGS 2%, no Asc., N2 +, API 0.04%, 25° C., t = 28 d"}, "[30]": {"conditions": "vitamin E TPGS 2%, no Asc., N2 +, API 0.04%, t = 0"}, "[31]": {"conditions": "vitamin E TPGS 2%, no Asc., N2 −, API 0.04%, 6° C., t = 7 d"}, "[32]": {"conditions": "vitamin E TPGS 2%, no Asc., N2 −, API 0.04%, 6° C., t = 14 d"}, "[33]": {"conditions": "vitamin E TPGS 2%, no Asc., N2 −, API 0.04%, 6° C., t = 28 d"}, "[34]": {"conditions": "vitamin E TPGS 2%, no Asc., N2 −, API 0.04%, 25° C., t = 7 d"}, "[35]": {"conditions": "vitamin E TPGS 2%, no Asc., N2 −, API 0.04%, 25° C., t = 14 d"}, "[36]": {"conditions": "vitamin E TPGS 2%, no Asc., N2 −, API 0.04%, 25° C., t = 28 d"}, "[37]": {"conditions": "vitamin E TPGS 2%, no Asc., N2 −, API 0.04%, t = 0"}}}
{"smiles": "CN(C)[C@]1(c2cccc(F)c2)CC[C@]2(CC1)c1[nH]c3ccccc3c1CCN2C(=O)/C=C/c1ccccc1", "note": "[API, cis-(E)-4-(3-fluorophenyl)-2′,3′,4′,9′-tetrahydro-N,N-dimethyl-2′-(1-oxo-3-phenyl-2-propenyl)-spiro[cyclohexane-1,1′[1H]-pyrido[3,4-b]indol]-4-amine]", "values": [{"measurement": "Assay", "setting": "[1]", "value": 93.95, "unit": "µg/mL"}, {"measurement": "Impurities", "setting": "[1]", "value": "0.85 % (a/a)"}, {"measurement": "Assay", "setting": "[2]", "value": 93.15, "unit": "µg/mL"}, {"measurement": "Impurities", "setting": "[2]", "value": "0.63 % (a/a)"}, {"measurement": "Assay", "setting": "[3]", "value": 92.96, "unit": "µg/mL"}, {"measurement": "Impurities", "setting": "[3]", "value": "0.66 % (a/a)"}, {"measurement": "Assay", "setting": "[4]", "value": 93.12, "unit": "µg/mL"}, {"measurement": "Impurities", "setting": "[4]", "value": "0.82 % (a/a)"}, {"measurement": "Assay", "setting": "[5]", "value": 93.21, "unit": "µg/mL"}, {"measurement": "Impurities", "setting": "[5]", "value": "1.15 % (a/a)"}, {"measurement": "Assay", "setting": "[6]", "value": 93.12, "unit": "µg/mL"}, {"measurement": "Impurities", "setting": "[6]", "value": "0.74 % (a/a)"}, {"measurement": "Assay", "setting": "[7]", "value": 93.69, "unit": "µg/mL"}, {"measurement": "Impurities", "setting": "[7]", "value": "1.01 % (a/a)"}, {"measurement": "Assay", "setting": "[8]", "value": 93.67, "unit": "µg/mL"}, {"measurement": "Impurities", "setting": "[8]", "value": "0.80 % (a/a)"}, {"measurement": "Assay", "setting": "[9]", "value": 92.32, "unit": "µg/mL"}, {"measurement": "Impurities", "setting": "[9]", "value": "0.63 % (a/a)"}, {"measurement": "Assay", "setting": "[10]", "value": 218.73, "unit": "µg/mL"}, {"measurement": "Impurities", "setting": "[10]", "value": "0.72 % (a/a)"}, {"measurement": "Assay", "setting": "[11]", "value": 218.92, "unit": "µg/mL"}, {"measurement": "Impurities", "setting": "[11]", "value": "0.95 % (a/a)"}, {"measurement": "Assay", "setting": "[12]", "value": 219.23, "unit": "µg/mL"}, {"measurement": "Impurities", "setting": "[12]", "value": "0.68 % (a/a)"}, {"measurement": "Assay", "setting": "[13]", "value": 209.88, "unit": "µg/mL"}, {"measurement": "Impurities", "setting": "[13]", "value": "1.22 % (a/a)"}, {"measurement": "Assay", "setting": "[14]", "value": 210.66, "unit": "µg/mL"}, {"measurement": "Impurities", "setting": "[14]", "value": "1.08 % (a/a)"}, {"measurement": "Assay", "setting": "[15]", "value": 190.68, "unit": "µg/mL"}, {"measurement": "Impurities", "setting": "[15]", "value": "1.54 % (a/a)"}, {"measurement": "Assay", "setting": "[16]", "value": 217.91, "unit": "µg/mL"}, {"measurement": "Impurities", "setting": "[16]", "value": "0.62 % (a/a)"}, {"measurement": "Assay", "setting": "[17]", "value": 222.15, "unit": "µg/mL"}, {"measurement": "Impurities", "setting": "[17]", "value": "0.75 % (a/a)"}, {"measurement": "Assay", "setting": "[18]", "value": 226.12, "unit": "µg/mL"}, {"measurement": "Impurities", "setting": "[18]", "value": "0.85 % (a/a)"}, {"measurement": "Assay", "setting": "[19]", "value": 225.09, "unit": "µg/mL"}, {"measurement": "Impurities", "setting": "[19]", "value": "0.79 % (a/a)"}, {"measurement": "Assay", "setting": "[20]", "value": 222.30, "unit": "µg/mL"}, {"measurement": "Impurities", "setting": "[20]", "value": "0.92 % (a/a)"}, {"measurement": "Assay", "setting": "[21]", "value": 213.85, "unit": "µg/mL"}, {"measurement": "Impurities", "setting": "[21]", "value": "1.58 % (a/a)"}, {"measurement": "Assay", "setting": "[22]", "value": 197.06, "unit": "µg/mL"}, {"measurement": "Impurities", "setting": "[22]", "value": "1.67 % (a/a)"}, {"measurement": "Assay", "setting": "[23]", "value": 218.96, "unit": "µg/mL"}, {"measurement": "Impurities", "setting": "[23]", "value": "0.63 % (a/a)"}, {"measurement": "Assay", "setting": "[24]", "value": 216.81, "unit": "µg/mL"}, {"measurement": "Impurities", "setting": "[24]", "value": "0.53 % (a/a)"}, {"measurement": "Assay", "setting": "[25]", "value": 216.54, "unit": "µg/mL"}, {"measurement": "Impurities", "setting": "[25]", "value": "0.71 % (a/a)"}, {"measurement": "Assay", "setting": "[26]", "value": 216.93, "unit": "µg/mL"}, {"measurement": "Impurities", "setting": "[26]", "value": "0.46 % (a/a)"}, {"measurement": "Assay", "setting": "[27]", "value": 215.81, "unit": "µg/mL"}, {"measurement": "Impurities", "setting": "[27]", "value": "0.57 % (a/a)"}, {"measurement": "Assay", "setting": "[28]", "value": 215.34, "unit": "µg/mL"}, {"measurement": "Impurities", "setting": "[28]", "value": "0.82 % (a/a)"}, {"measurement": "Assay", "setting": "[29]", "value": 217.45, "unit": "µg/mL"}, {"measurement": "Impurities", "setting": "[29]", "value": "0.72 % (a/a)"}, {"measurement": "Assay", "setting": "[30]", "value": 214.85, "unit": "µg/mL"}, {"measurement": "Impurities", "setting": "[30]", "value": "0.58 % (a/a)"}, {"measurement": "Assay", "setting": "[31]", "value": 214.61, "unit": "µg/mL"}, {"measurement": "Impurities", "setting": "[31]", "value": "0.37 % (a/a)"}, {"measurement": "Assay", "setting": "[32]", "value": 214.30, "unit": "µg/mL"}, {"measurement": "Impurities", "setting": "[32]", "value": "0.72 % (a/a)"}, {"measurement": "Assay", "setting": "[33]", "value": 214.68, "unit": "µg/mL"}, {"measurement": "Impurities", "setting": "[33]", "value": "0.49 % (a/a)"}, {"measurement": "Assay", "setting": "[34]", "value": 214.19, "unit": "µg/mL"}, {"measurement": "Impurities", "setting": "[34]", "value": "0.54 % (a/a)"}, {"measurement": "Assay", "setting": "[35]", "value": 213.44, "unit": "µg/mL"}, {"measurement": "Impurities", "setting": "[35]", "value": "0.80 % (a/a)"}, {"measurement": "Assay", "setting": "[36]", "value": 215.45, "unit": "µg/mL"}, {"measurement": "Impurities", "setting": "[36]", "value": "0.67 % (a/a)"}, {"measurement": "Assay", "setting": "[37]", "value": 212.92, "unit": "µg/mL"}, {"measurement": "Impurities", "setting": "[37]", "value": "0.60 % (a/a)"}, {"measurement": "sum of all impurities", "setting": "storage temperature of 6° C., all compositions, up to 28 days", "value": "below 1 % (a/a)"}]}
